Assay results as given in US5525627A, “Esters of acyl carnitines with long-chain aliphatic alcohols and pharmaceutical compositions containing same having antimycotic activity” (Sigma-Tau Industrie Farmaceutiche Riunite S.p.A., priority 1992, dated 1996).

Columns and labels:
Assay in all cases: MIC for yeast and yeast-like strains
Assay type in all cases: cell-based
Candida albicans (ISS 1) = settings: 48 hours, 35° C., read-out: Minimal Inhibitory Concentration (MIC)
Outline: (§1)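 In vitro antimycotic assay: inocula were prepared from Sabouraud broth cultures (overnight, or 48-hour for Cryptococcus) and tested at ~5.0×10^4 CFU/ml final in MOPS-buffered Yeast Nitrogen Base with asparagine and glucose.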

Candida glabrata (ISS 1) = settings: Nakaseomyces glabratus; 48 hours, 35° C.; read-out: Minimal Inhibitory Concentration (MIC)
Outline: as §1

[1] = system: Candida pseudotropicalis (EC 1); settings: Kluyveromyces marxianus; 48 hours, 35° C.; read-out: Minimal Inhibitory Concentration (MIC)
Outline: as §1

[2] = system: Candida tropicalis (ISS 1); settings: 48 hours, 35° C., read-out: Minimal Inhibitory Concentration (MIC)
Outline: as §1

[3] = system: Candida guilliermondii (ISS 1); settings: Meyerozyma guilliermondii; 48 hours, 35° C.; read-out: Minimal Inhibitory Concentration (MIC)
Outline: as §1

[4] = system: Candida parapsilosis (ISS 1); settings: Lodderomyces parapsilosis; 48 hours, 35° C.; read-out: Minimal Inhibitory Concentration (MIC)
Outline: as §1

[5] = system: Candida albicans (ATCC 2091); settings: ATCC2091, 48 hours, 35° C., read-out: Minimal Inhibitory Concentration (MIC)
Outline: as §1

[6] = system: Cryptococcus neoformans (ISS 1); settings: 48 hours, 35° C., read-out: Minimal Inhibitory Concentration (MIC)
Outline: as §1

## CCCCCCCCCCCOC(=O)C[C@H](C[N+](C)(C)C)OC(=O)CC(C)C [ST 722, isovaleryl-L-carnitine undecyl ester chloride]
Candida albicans (ISS 1)
  MIC: 1.56 µg/mL
Candida glabrata (ISS 1)
  MIC: 6.25 µg/mL
[1]
  MIC: 6.25 µg/mL
[2]
  MIC: 3.12 µg/mL
[3]
  MIC: 6.25 µg/mL
[4]
  MIC: 6.25 µg/mL
[5]
  MIC: 3.12 µg/mL
[6]
  MIC: 3.12 µg/mL
